According to publication PMC4472559 (Journal of the American Chemical Society, 2015):

Target: transthyretin (TTR^WT) (Homo sapiens, UniProt P02766)
Experiment: isothermal titration calorimetry
Assay type: binding

Q: Which Kd does the source give for `O=S(=O)(F)Oc1ccc(-c2nnc(-c3cc(Cl)c(O)c(Cl)c3)o2)cc1` [compound 4, probe 4] here?
A: 2 nM
